Test [1] deals with T1, human SLC6A19 and TMEM27 (Homo sapiens, UniProt Q695T7).
T1 construct: expressed in transfected cells
T1 sequence (Q695T7 1-634): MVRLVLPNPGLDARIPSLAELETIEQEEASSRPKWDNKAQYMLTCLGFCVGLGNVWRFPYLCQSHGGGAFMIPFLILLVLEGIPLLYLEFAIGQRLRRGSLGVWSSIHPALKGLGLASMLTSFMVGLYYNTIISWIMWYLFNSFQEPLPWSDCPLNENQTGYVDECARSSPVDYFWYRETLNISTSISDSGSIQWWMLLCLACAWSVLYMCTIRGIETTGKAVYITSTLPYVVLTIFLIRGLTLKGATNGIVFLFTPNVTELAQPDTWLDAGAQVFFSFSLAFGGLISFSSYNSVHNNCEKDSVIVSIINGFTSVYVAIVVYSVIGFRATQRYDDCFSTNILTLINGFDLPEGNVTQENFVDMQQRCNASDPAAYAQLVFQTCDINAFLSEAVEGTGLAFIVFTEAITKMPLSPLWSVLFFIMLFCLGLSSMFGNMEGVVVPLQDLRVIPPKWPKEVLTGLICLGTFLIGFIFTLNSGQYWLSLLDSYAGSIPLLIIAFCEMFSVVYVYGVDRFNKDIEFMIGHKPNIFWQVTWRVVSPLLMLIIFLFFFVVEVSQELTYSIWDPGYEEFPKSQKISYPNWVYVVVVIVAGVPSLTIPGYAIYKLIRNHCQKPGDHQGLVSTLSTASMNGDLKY
T1 sequence (Q9HBJ8 15-222 partner): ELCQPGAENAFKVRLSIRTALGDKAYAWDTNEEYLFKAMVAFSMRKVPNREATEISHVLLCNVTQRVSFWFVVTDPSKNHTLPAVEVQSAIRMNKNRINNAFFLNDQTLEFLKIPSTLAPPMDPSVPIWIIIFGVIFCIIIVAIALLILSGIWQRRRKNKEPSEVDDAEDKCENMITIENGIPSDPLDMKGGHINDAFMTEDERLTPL
Kind of test: 13C6,15N-isoleucine uptake in CHO cells with doxycycline-inducible expression of human SLC6A19 and TMEM27, RapidFire mass spectrometry (Example B-2). In kind it is cell-based. To be noted: read-out: SLC6A19_RapidFire Uptake Assay IC50. The procedure, abridged:
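CHO cells induced overnight with doxycycline to express human SLC6A19 plus TMEM27; 20 min preincubation with compound (10-point 2-fold series, duplicate) at 37 °C in HEPES buffer pH 7.2, then 20 min with 13C6,15N-isoleucine. Intracellular label quantified by RapidFire MS against 13C-leucine standard; positive control defined 100% inhibition.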

In test [2] the target is T1, human SLC6A19 and TMEM27. Kind of test: Radiolabelled (3H) leucine uptake in CHO cells with doxycycline-inducible expression of human SLC6A19 and TMEM27 (Example B-1). It counts as cell-based. To be noted: CHO cells with doxycycline-inducible expression of human SLC6A19 and TMEM27, read-out: SLC6A19_Radioligand Uptake Assay IC50. The procedure, abridged: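 CHO cells were induced with doxycycline for 18 h at 37 °C, washed in HBSS, then exposed to compounds for 1 h: 8-point, 3-fold dilutions in duplicate, 0.5% DMSO final. Uptake measured by scintillation counting after 2 h shaking. Activity normalized with positive control as 0% and DMSO as 100%.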

Counter-ions that a name gives are not always drawn.

As usually defined, the IC50 is the midpoint of a concentration-inhibition curve.

Regarding `CC(=O)NCc1cc2cc(F)c(OCc3cccc(F)n3)cc2[nH]1` [Compound 226, N-((5-fluoro-6-((6-fluoropyridin-2-yl)methoxy)-1H-indol-2-yl)methyl)acetamide], the IC50 at human SLC6A19 and TMEM27 [1] came to 960 nM; at human SLC6A19 and TMEM27 [2], 1120 nM.

`CC1(C(=O)NCc2cc3cc(Cl)c(OCc4ccsc4)cc3[nH]2)CC1` [Compound 25, N-((5-chloro-6-(thiophen-3-ylmethoxy)-1H-indol-2-yl)methyl)-1-methylcyclopropane-1-carboxamide]: the IC50 at human SLC6A19 and TMEM27 [1] amounted to 33 nM; at human SLC6A19 and TMEM27 [2], 124 nM.

Consider `CC1(C(=O)NCc2cc3cc(Cl)c(OCc4cc(C(F)F)on4)cc3[nH]2)CC1` [Compound 96, N-((5-chloro-6-((5-(difluoromethyl)isoxazol-3-yl)methoxy)-1H-indol-2-yl)methyl)-1-methylcyclopropane-1-carboxamide], for which the IC50 was 354 nM at human SLC6A19 and TMEM27 [1]; 261 nM on human SLC6A19 and TMEM27 [2].

Turning to `CCC(=O)NCc1cc2cc(Cl)c(OCc3ccon3)cc2[nH]1` [Compound 129, N-((5-chloro-6-(isoxazol-3-ylmethoxy)-1H-indol-2-yl)methyl)propionamide], the IC50 came to 44 nM on human SLC6A19 and TMEM27 [1]; 80 nM at human SLC6A19 and TMEM27 [2].

`CC(=O)NCc1cc2cc(Cl)c(NCc3ccon3)cc2[nH]1` [Compound 227, N-((5-chloro-6-((isoxazol-3-ylmethyl)amino)-1H-indol-2-yl)methyl)acetamide]: the IC50 is 486 nM at human SLC6A19 and TMEM27 [1]; 317 nM on human SLC6A19 and TMEM27 [2].

Consider `Cn1ncc(COc2cc3[nH]c(CNC(=O)N4CCCC4)cc3cc2Cl)n1` [Compound 406, N-((5-chloro-6-((2-methyl-2H-1,2,3-triazol-4-yl)methoxy)-1H-indol-2-yl)methyl)pyrrolidine-1-carboxamide], for which the IC50 on human SLC6A19 and TMEM27 [1] worked out at 172 nM; at human SLC6A19 and TMEM27 [2] it was 347 nM.

In the case of `CC1(C(=O)NCc2cc3cc(Cl)c(OCc4cscn4)c(Cl)c3[nH]2)CC1` [Compound 344, N-((5,7-dichloro-6-(thiazol-4-ylmethoxy)-1H-indol-2-yl)methyl)-1-methylcyclopropane-1-carboxamide], the IC50 on human SLC6A19 and TMEM27 [1] was more than 50000 nM; on human SLC6A19 and TMEM27 [2], 3910 nM.

For `CC1(C(=O)NCc2cc3cc(F)c(OCc4cccc(F)n4)cc3[nH]2)CC1` [Compound 327, N-((5-fluoro-6-((6-fluoropyridin-2-yl)methoxy)-1H-indol-2-yl)methyl)-1-methylcyclopropane-1-carboxamide], the IC50 at human SLC6A19 and TMEM27 [1] is 89.1 nM; at human SLC6A19 and TMEM27 [2], 223 nM.

Consider `CCC(=O)NCc1cc2cc(F)c(OCc3coc(C)n3)cc2[nH]1` [Compound 550, N-((5-fluoro-6-((2-methyloxazol-4-yl)methoxy)-1H-indol-2-yl)methyl)propionamide], for which the IC50 worked out at 1040 nM at human SLC6A19 and TMEM27 [1]; 552 nM at human SLC6A19 and TMEM27 [2].

For the compound `CC1CCCN1C(=O)NCc1cc2ccc(OCc3ccon3)cc2[nH]1` (stereo not drawn) [Compound 124, N-((6-(isoxazol-3-ylmethoxy)-1H-indol-2-yl)methyl)-2-methylpyrrolidine-1-carboxamide], the IC50 was determined as 1320 nM at human SLC6A19 and TMEM27 [1]; 450 nM at human SLC6A19 and TMEM27 [2].

On to `CCC(=O)NCc1cc2cc(F)c(OCc3cc(C)no3)cc2[nH]1` [Compound 548, N-((5-fluoro-6-((3-methylisoxazol-5-yl)methoxy)-1H-indol-2-yl)methyl)propionamide], for which the IC50 is 54.5 nM at human SLC6A19 and TMEM27 [1]; 100 nM on human SLC6A19 and TMEM27 [2].

Take `Cn1ncc(COc2cc3[nH]c(CNC(=O)C4CC4)cc3cc2F)n1` [Compound 433, N-((5-fluoro-6-((2-methyl-2H-1,2,3-triazol-4-yl)methoxy)-1H-indol-2-yl)methyl)cyclopropanecarboxamide]: the IC50 stood at 1500 nM on human SLC6A19 and TMEM27 [1]; 566 nM at human SLC6A19 and TMEM27 [2].

On to `CC1(C(=O)NCc2cc3cc(F)c(NCc4ccon4)cc3[nH]2)CC1` [Compound 524, N-((5-fluoro-6-((isoxazol-3-ylmethyl)amino)-1H-indol-2-yl)methyl)-1-methylcyclopropane-1-carboxamide], for which the IC50 came to 570 nM on human SLC6A19 and TMEM27 [1]; 400 nM at human SLC6A19 and TMEM27 [2].

In the case of `O=C(NCc1cc2cc(C(F)(F)F)c(OCc3cscn3)cc2[nH]1)N1CCC1` [Compound 478, N-((6-(thiazol-4-ylmethoxy)-5-(trifluoromethyl)-1H-indol-2-yl)methyl)azetidine-1-carboxamide], the IC50 on human SLC6A19 and TMEM27 [1] stood at 172 nM; at human SLC6A19 and TMEM27 [2], 416 nM.

On to `CC1(C(=O)NCc2cc3cc(Cl)c(OCc4cncs4)cc3[nH]2)CC1` [Compound 177, N-((5-chloro-6-(thiazol-5-ylmethoxy)-1H-indol-2-yl)methyl)-1-methylcyclopropane-1-carboxamide], for which the IC50 on human SLC6A19 and TMEM27 [1] is 275 nM; at human SLC6A19 and TMEM27 [2], 307 nM.

`CC1(C(=O)NCc2cc3ccc(OCc4cccnc4F)cc3[nH]2)CC1` [Compound 98, N-((6-((2-fluoropyridin-3-yl)methoxy)-1H-indol-2-yl)methyl)-1-methylcyclopropane-1-carboxamide formate]: the IC50 at human SLC6A19 and TMEM27 [1] was found to be 274 nM; at human SLC6A19 and TMEM27 [2], 210 nM.

`CC1(C(=O)NCc2cc3cc(Cl)c(CCn4cccn4)cc3[nH]2)CC1` [Compound 590, N-((6-(2-(1H-pyrazol-1-yl)ethyl)-5-chloro-1H-indol-2-yl)methyl)-1-methylcyclopropane-1-carboxamide]: the half-maximal inhibitory concentration (IC50) on human SLC6A19 and TMEM27 [1] amounted to 51.8 nM; on human SLC6A19 and TMEM27 [2] it was 145 nM.

As for `CNC(=O)NCc1cc2cc(Cl)c(OCc3cscn3)cc2[nH]1` [Compound 209, 1-((5-chloro-6-(thiazol-4-ylmethoxy)-1H-indol-2-yl)methyl)-3-methylurea], the IC50 on human SLC6A19 and TMEM27 [1] amounted to 117 nM; on human SLC6A19 and TMEM27 [2] it was 130 nM.

Regarding `CC(C)(C)C(=O)NCc1cc2cc(Cl)c(OCc3cscn3)cc2[nH]1` [Compound 432, N-((5-chloro-6-(thiazol-4-ylmethoxy)-1H-indol-2-yl)methyl)pivalamide], the IC50 worked out at 253 nM at human SLC6A19 and TMEM27 [1]; 384 nM on human SLC6A19 and TMEM27 [2].

On to `Cc1ncc(COc2cc3[nH]c(CNC(=O)C4(C)CC4)cc3cc2F)s1` [Compound 13, N-((5-fluoro-6-((2-methylthiazol-5-yl)methoxy)-1H-indol-2-yl)methyl)-1-methylcyclopropane-1-carboxamide], for which the IC50 on human SLC6A19 and TMEM27 [1] amounted to 764 nM; at human SLC6A19 and TMEM27 [2], 637 nM.

`CCC(=O)NCc1cc2cc(Cl)c(OCc3cccc(F)n3)cc2[nH]1` [Compound 494, N-((5-chloro-6-((6-fluoropyridin-2-yl)methoxy)-1H-indol-2-yl)methyl)propionamide]: the IC50 on human SLC6A19 and TMEM27 [1] amounted to 35.7 nM; at human SLC6A19 and TMEM27 [2], 148 nM.

On to `O=C(NCc1cc2cc(F)c(OCc3ccon3)cc2[nH]1)C1CCC1` [Compound 431, N-((5-fluoro-6-(isoxazol-3-ylmethoxy)-1H-indol-2-yl)methyl)cyclobutanecarboxamide], for which the IC50 at human SLC6A19 and TMEM27 [1] stood at 343 nM; at human SLC6A19 and TMEM27 [2], 244 nM.

Turning to `CC1CN(C(=O)NCc2cc3cc(Cl)c(OCc4ccon4)cc3[nH]2)C1` [Compound 390, N-((5-chloro-6-(isoxazol-3-ylmethoxy)-1H-indol-2-yl)methyl)-3-methylazetidine-1-carboxamide], the IC50 on human SLC6A19 and TMEM27 [1] turned out to be 402 nM; on human SLC6A19 and TMEM27 [2], 340 nM.

For the compound `CC(C)(C)C(=O)NCc1cc2cc(Cl)c(OCc3ccon3)cc2[nH]1` [Compound 493, N-((5-chloro-6-(isoxazol-3-ylmethoxy)-1H-indol-2-yl)methyl)pivalamide], the IC50 on human SLC6A19 and TMEM27 [1] turned out to be 1140 nM; on human SLC6A19 and TMEM27 [2], 1440 nM.

With `Cc1cc(CCc2cc3[nH]c(CNC(=O)C4(C)CC4)cc3cc2Cl)no1` [Compound 148], the IC50 on human SLC6A19 and TMEM27 [1] worked out at 31 nM; on human SLC6A19 and TMEM27 [2], 154 nM.

Consider `CCc1c(CNC(=O)N2CCC2)[nH]c2cc(OCc3cscn3)c(Cl)cc12` [Compound 424, N-((5-chloro-3-ethyl-6-(thiazol-4-ylmethoxy)-1H-indol-2-yl)methyl)azetidine-1-carboxamide], for which the IC50 at human SLC6A19 and TMEM27 [1] is 491 nM; on human SLC6A19 and TMEM27 [2], 1260 nM.

For the compound `O=C(NCc1cc2cc(OC(F)(F)F)c(OCc3cscn3)cc2[nH]1)N1CCCC1` [Compound 415, N-((6-(thiazol-4-ylmethoxy)-5-(trifluoromethoxy)-1H-indol-2-yl)methyl)pyrrolidine-1-carboxamide], the IC50 at human SLC6A19 and TMEM27 [1] stood at 93.4 nM; on human SLC6A19 and TMEM27 [2] it was 384 nM.

Values taken from US20240199546A1, “INHIBITORS OF SOLUTE CARRIER FAMILY 6A MEMBER 19 (SLC6A19) AND METHODS OF USE THEREOF” (Maze Therapeutics, Inc., priority 2022, published 2024).
